Inhibition data for 14 compounds are collected here from ChEMBL document CHEMBL1121708, “Synthesis and study of the potential antiallergic activity of some pyrazole derivatives” (1981).

Assay [1] concerns Rattus norvegicus. The assay can be described thus: Compound was tested for inhibition of the rat passive cutaneous anaphylaxis (PCA) 1 hr after oral administration; >0<50. The arrangement: concentration or dose not given beside the values. It counts as functional.
In assay [2] the test system is Rattus norvegicus. The assay can be described thus: Compound was tested for inhibition of the rat passive cutaneous anaphylaxis (PCA) 3h after oral administration; >0<50. It counts as functional. The arrangement: concentration or dose not given beside the values.

For orientation: Inhibition means the percentage by which the read-out fell short of the control. As to `Nc1ccc2[nH]ncc2c1`, the Inhibition with Rattus norvegicus [1] is on record as more than 0%; with Rattus norvegicus [2], 54%.
The like results for `CC1Cc2c[nH]nc2-c2ccccc21` (stereo not drawn) were, in that order, more than 0% and more than 0%.
`c1ccc2c(c1)CCCc1c[nH]nc1-2`: the Inhibition in the assay with Rattus norvegicus [1] and in the assay on Rattus norvegicus [2] was more than 0% throughout.
In the case of `COc1cccc2c1CCc1c[nH]nc1-2`, the Inhibition is 15% in the assay with Rattus norvegicus [1] and more than 0% in the assay on Rattus norvegicus [2].
`c1ccc2c(c1)SCc1cn[nH]c1-2`: the Inhibition in the assay on Rattus norvegicus [1] and with Rattus norvegicus [2] was more than 0% throughout.
Regarding `Oc1ccc2c(c1)-c1n[nH]cc1CC2`, the Inhibition with Rattus norvegicus [1] and in the assay with Rattus norvegicus [2] was more than 0% in each case.
For `c1ccc2c(c1)CCc1c[nH]nc1-2`, the Inhibition in the assay on Rattus norvegicus [1] and in the assay on Rattus norvegicus [2] was more than 0% in each case.
For the compound `c1[nH]nc2c1CCC1c3n[nH]cc3CCC21` (stereo not drawn), the Inhibition turned out to be 77% in the assay with Rattus norvegicus [1] and 55% in the assay with Rattus norvegicus [2].
Turning to `COc1ccc2c(c1)-c1n[nH]cc1CC2`, the Inhibition is listed as 32% in the assay on Rattus norvegicus [1] and more than 0% with Rattus norvegicus [2].
As for `c1ccc2c(c1)OCc1cn[nH]c1-2`, the Inhibition with Rattus norvegicus [1] and in the assay with Rattus norvegicus [2] was more than 0% each time.
`COc1ccc2c(c1)CCc1c[nH]nc1-2`: the Inhibition with Rattus norvegicus [1] and in the assay with Rattus norvegicus [2] was more than 0% throughout.
Regarding `CCc1cc2c(cc1CC)-c1n[nH]cc1CC2`, the Inhibition in the assay on Rattus norvegicus [1] and in the assay on Rattus norvegicus [2] was more than 0% in each case.
On to `Oc1ccc2c(c1)CCc1c[nH]nc1-2`, for which the Inhibition in the assay on Rattus norvegicus [1] and in the assay on Rattus norvegicus [2] was more than 0% each time.
Take `Oc1cccc2c1CCc1c[nH]nc1-2`: the Inhibition in the assay on Rattus norvegicus [1] and in the assay with Rattus norvegicus [2] was more than 0% each time.
